What was measured:
[1] = target: Human recombinant GST-PI3δ (Homo sapiens (Human), UniProt O00329); assay: PI3K induced-lipid phosphorylation scintillation proximity assay (neomycin-coated SPA beads); format: biochemical
From the text: The efficacy of compounds of the invention in inhibiting the PI3K induced-lipid phosphorylation may be tested in the following binding assay.
The assay combines the scintillation proximity assay technology (SPA, Amersham) with the capacity of neomycin (a polycationic antibiotic) to bind phospholipids with high affinity and specificity. The Scintillation Proximity Assay is based on the properties of weakly emitting isotopes (such as ^3H, ^125I, ^33P). Coating SPA beads with neomycin allows the detection of phosphorylated lipid substrates after incubation with recombinant PI3K and radioactive ATP in the same well, by capturing the radioactive phospholipids to the SPA beads through their specific binding to neomycin.
To a 96 wells MTP containing 10 μl of the test compound of Formula (I) (solubilized in 10% DMSO; to yield a concentration of 100, 25, 5.0, 1.25, 0.312, 0.078, 0.0195, 0.00488, 0.00122 and 0.0003 μM of the test compound), the following assay components are added: 1) 10 μl of lipid micelles 2) 20 μl of Kinase buffer ([^33P]γ-ATP 162 μM/300 nCi, MgCl2 2.5 mM, DTT 2.5 mM, Na3VO4 25 μM in Hepes 40 mM, pH 7.4) and 3) 10 μl (100 ng) of Human recombinant GST-PI3δ (in Hepes 40 mM, pH 7.4, ethylenglycol 4%). After incubation at room temperature for 120 minutes, with gentle agitation, the reaction is stopped by addition of 200 μl of a solution containing 250 μg of neomycin-coated PVT SPA beads, ATP 60 mM and EDTA 6.2 mM in PBS. The assay is further incubated at room temperature for 60 minutes with gentle agitation to allow binding of phospholipids to neomycin-SPA beads. After precipitation of the neomycin-coated PVT SPA beads for 5 minutes at 1500×g, radioactive PtdIns(3)P is quantified by scintillation counting in a Wallac MicroBeta™ plate counter.
The values indicated in Table I below refer to the IC50 (μM) with respect to PI3K, i.e. the amount necessary to achieve 50% inhibition of said target. Said values show a considerable inhibitory potency of pyrazine compounds with regard to PI3K.

[2] = test system: Akt phosphorylation in B cells; assay: IgM-induced Akt phosphorylation in B cell (human PBMC, flow cytometry); format: cell-based; settings: 5 min, CD19+ IgM+ B cells in human PBMC, anti IgM for 5 minutes, read-out: IC50, inhibition of IgM-induced Akt Phosphorylation
Protocol: Human PBMC were prepared from a Buffy coat (Geneve Hospital) after a Ficoll gradient (FICOLL-PAQUE Plus PHARMACIA ref: 17-1440-03).
Cell concentration was adjusted to 10^6 cells per ml in RPMI (GIBCO Ref: 72400-21) without serum. Before stimulation, 90 μl of PBMC suspension was incubated with 10 μl of diluted compound in a 96 well round bottom plate for 20 minutes at 37° C.
For B cell activation, 30 μl of Fab′2 Goat anti IgM (Jackson Immuno-research) at 10 μg/ml was added to each well. After 5 minutes, cell activation was stopped with 4% paraformaldehyde (10 minutes at room temperature).
Fixed PBMC were then treated for 20 minutes with 0.15% Triton, washed twice with PBS and permeabilized with 50% methanol for 15 minutes.
PBMC were washed twice in PBS, resuspended in: PBS-4% FCS and incubated with anti P-Akt (1/100 dilution) for one hour at room temperature.
After one wash, PBMC were further stained for 30 minutes with a mixture of anti-CD19-PE (BD Biosciences), anti-IgM-FITC (BD Biosciences) and goat anti rabbit IgG-Alexa 647 (Molecular probe).
After washing, PBMC (Peripheral Blood Mononuclear Cells) were analysed on a FACSCalibur instrument (BD Biosciences) equipped with a 633 helium-neon laser, or stored at 4° C. for further analysis. 510^3 B cells events were gathered per sample in the CD19 positive region.
For the analysis, a threshold was applied on P-Akt histogram of CD 19+ IgM+ lymphocytes cells from the non-stimulated samples and the percentage of cells above this threshold was determined for each sample.

[3] = test system: PKB/Akt phosphorylation in mast cells; assay: SCF-induced PKB/Akt phosphorylation in mast cells; format: cell-based, mice; settings: Mast cell, 0.25 h; mast cells derived from mouse bone marrow, 20 ng/mL SCF for 15 minutes; read-out: IC50, inhibition of SCF-induced Akt Phosphorylation
Protocol: Protocol: Primary bone marrow cells were isolated from 4-8 weeks old wild type mice and derived to mast cells by incubation with medium containing 20 ng/mL of stem cell factor (SCF) (PeproTech, Switzerland) and 20 ng/mL of IL-3 (PeproTech, Switzerland) for at least 4 weeks. Confirmation of the expression of mast cell specific surface markers was done by FACS analysis using antibodies against c-kit (cKit-PE mouse antibody; Pharmingen). Cells were maintained in culture in the presence of SCF and IL-3. To induce PKB/Akt phosphorylation, mast cells were resuspended at 2.5×10^6 cells/mL and starved in medium containing no SCF or IL-3 for 24 h. After preincubation with compounds or 1% DMSO for 20 minutes, cells were activated with 20 ng/mL of SCF for 15 minutes at 37° C., fixed in 1.5% paraformaldehyde for 20 minutes and permeabilised with 0.2% Triton X-100 for 10 minutes, at room temperature. PKB/Akt phosphorylation was visualized using phospho-Ser-473 specific Akt antibodies (Cell Signaling) and standard FACS protocols.

Sequence of Human recombinant GST-PI3δ (O00329 whole entry): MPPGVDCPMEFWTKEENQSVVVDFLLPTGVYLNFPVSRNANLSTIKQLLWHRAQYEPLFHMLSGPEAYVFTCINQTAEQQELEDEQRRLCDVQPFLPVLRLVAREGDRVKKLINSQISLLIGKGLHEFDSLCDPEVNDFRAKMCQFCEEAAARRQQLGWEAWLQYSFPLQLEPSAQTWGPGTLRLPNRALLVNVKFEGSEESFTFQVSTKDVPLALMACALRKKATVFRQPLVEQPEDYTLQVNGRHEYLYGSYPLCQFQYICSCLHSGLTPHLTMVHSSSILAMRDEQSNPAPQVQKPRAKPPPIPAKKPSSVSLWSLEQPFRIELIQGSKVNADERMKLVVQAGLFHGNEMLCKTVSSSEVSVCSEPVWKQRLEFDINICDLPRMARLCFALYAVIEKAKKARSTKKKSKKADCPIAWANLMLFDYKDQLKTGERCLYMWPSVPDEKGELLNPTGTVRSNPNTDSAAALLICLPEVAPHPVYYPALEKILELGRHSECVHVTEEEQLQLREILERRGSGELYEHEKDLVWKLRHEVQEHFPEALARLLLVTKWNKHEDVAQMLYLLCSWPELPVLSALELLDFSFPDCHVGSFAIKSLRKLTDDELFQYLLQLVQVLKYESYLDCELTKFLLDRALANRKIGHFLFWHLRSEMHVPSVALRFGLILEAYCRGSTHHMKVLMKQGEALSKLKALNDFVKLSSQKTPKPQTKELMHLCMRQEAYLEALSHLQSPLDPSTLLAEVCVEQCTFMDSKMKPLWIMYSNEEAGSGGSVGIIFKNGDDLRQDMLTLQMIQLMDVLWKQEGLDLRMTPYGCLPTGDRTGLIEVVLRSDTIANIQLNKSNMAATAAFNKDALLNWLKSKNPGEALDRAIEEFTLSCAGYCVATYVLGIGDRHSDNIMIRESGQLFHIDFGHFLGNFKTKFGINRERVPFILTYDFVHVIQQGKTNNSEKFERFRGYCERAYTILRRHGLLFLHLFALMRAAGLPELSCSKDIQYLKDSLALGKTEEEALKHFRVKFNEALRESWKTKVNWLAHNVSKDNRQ

| IC50 [1] | IC50 [2] | IC50 [3] | Structure (SMILES) |
| --- | --- | --- | --- |
| 430 nM |  |  | COc1ccc(OC)c(Nc2nc3ccccc3nc2NS(=O)(=O)c2cccc(C#N)c2)c1 [Example 11, 3-Cyano-N-{3-[(2,5-dimethoxyphenyl)amino]quinoxalin-2-yl}benzene sulfonamide] |
|  | 34 nM |  | COc1ccc(OC)c(Nc2nc3ccccc3nc2NS(=O)(=O)c2ccccc2F)c1 [Example 14, N-{3-[(2,5-dimethoxyphenyl)amino]quinoxalin-2-yl}-2-fluorobenzene sulfonamide] |
|  | 26 nM |  | COc1cc(Nc2nc3ccccc3nc2NS(=O)(=O)c2ccccc2F)cc(OC)c1 [Example 15, N-{3-[(3,5-dimethoxyphenyl)amino]quinoxalin-2-yl}-2-fluorobenzene sulfonamide] |
|  | 24 nM | 410 nM | COc1cc(Nc2nc3ccccc3nc2NS(=O)(=O)c2cn(C)cn2)cc(OC)c1 [Example 20, N-{3-[(3,5-dimethoxyphenyl)amino]quinoxalin-2-yl}-1-methyl-1H-imidazole-4-sulfonamide] |
|  | 40 nM | 1890 nM | COc1cc(Nc2nc3ccccc3nc2NS(=O)(=O)c2ccccc2Cl)cc(OC)c1 [Example 38, 2-chloro-N-{3-[(3,5-dimethoxyphenyl)amino]quinoxalin-2-yl}benzene sulfonamide] |
|  | 11 nM | 350 nM | COc1cc(Nc2nc3ccccc3nc2NS(=O)(=O)c2ccc(C#N)cc2)cc(OC)c1 [Example 39, 4-cyano-N-{3-[(3,5-dimethoxyphenyl)amino]quinoxalin-2-yl}benzene sulfonamide] |
|  | 110 nM |  | COc1ccc(OC)c(Nc2nc3ccccc3nc2NS(=O)(=O)c2ccccc2Cl)c1 [Example 42, 2-chloro-N-{3-[(2,5-dimethoxyphenyl)amino]quinoxalin-2-yl}benzene sulfonamide] |
|  |  | 2420 nM | COc1cc(Nc2nc3ccccc3nc2NS(=O)(=O)c2ccc(F)cc2)cc(OC)c1 [Example 56, N-{3-[(3,5-dimethoxyphenyl)amino]quinoxalin-2-yl}-4-fluorobenzene Sulfonamide] |
|  |  | 1600 nM | COc1cc(Nc2nc3ccccc3nc2NS(=O)(=O)c2cccnc2)cc(OC)c1 [Example 95, N-{3-[(3,5-dimethoxyphenyl)amino]quinoxalin-2-yl}pyridine-3-sulfonamide] |
|  | 150 nM |  | COc1ccc(C)c(Nc2nc3ccccc3nc2NS(=O)(=O)c2cccnc2)c1 [Example 101, N-{3-[(5-methoxy-2-methylphenyl)amino]quinoxalin-2-yl}pyridine-3-sulfonamide] |
|  |  | 1220 nM | COc1cc(Nc2nc3ccccc3nc2NS(=O)(=O)c2ccc(C)nc2)cc(OC)c1 [Example 106, N-{3-[(3,5-dimethoxyphenyl)amino]quinoxalin-2-yl}-6-methylpyridine-3-sulfonamide] |
|  |  | 820 nM | COc1ccc(C)c(Nc2nc3ccccc3nc2NS(=O)(=O)c2ccc(C#N)cc2)c1 [Example 109, 4-cyano-N-{3-[(5-methoxy-2-methylphenyl)amino]quinoxalin-2-yl}benzenesulfonamide] |
|  | 140 nM |  | COc1ccc(C)c(Nc2nc3ccccc3nc2NS(=O)(=O)c2ccc(C)nc2)c1 [Example 110, N-{3-[(5-methoxy-2-methylphenyl)amino]quinoxalin-2-yl}-6-methylpyridine-3-sulfonamide] |
|  | 26 nM |  | COc1ccc(Cl)c(Nc2nc3ccccc3nc2NS(=O)(=O)c2ccc(C)nc2)c1 [Example 111, N-{3-[(2-chloro-5-methoxyphenyl)amino]quinoxalin-2-yl}-6-methylpyridine-3-sulfonamide] |
|  | 290 nM |  | COc1cc(Nc2nc3ccccc3nc2NS(=O)(=O)c2cccc(CN3CCOCC3)c2)cc(OC)c1 [Example 129, N-{3-[(3,5-dimethoxyphenyl)amino]quinoxalin-2-yl}-3-(morpholin-4-ylmethyl)benzenesulfonamide] |
|  | 60 nM | 130 nM | COc1cc(Nc2nc3ccccc3nc2NS(=O)(=O)c2ccc(CN3CCN(C)CC3)cc2)cc(OC)c1 [Example 130, N-{3-[(3,5-dimethoxyphenyl)amino]quinoxalin-2-yl}-4-[(4-methylpiperazin-1-yl)methyl]benzenesulfonamide] |
|  | 13 nM | 150 nM | COc1ccc(OC)c(Nc2nc3ccccc3nc2NS(=O)(=O)c2ccc(CN)cc2)c1 [Example 131, 4-(aminomethyl)-N-{3-[(2,5-dimethoxyphenyl)amino]quinoxalin-2-yl}benzenesulfonamide] |
|  |  | 680 nM | COc1cc(Nc2nc3ccccc3nc2NS(=O)(=O)c2cccc(CO)c2)cc(OC)c1 [Example 132, N-{3-[(3,5-dimethoxyphenyl)amino]quinoxalin-2-yl}-3-(hydroxymethyl)benzenesulfonamide] |
|  |  | 210 nM | COc1cc(Nc2nc3ccccc3nc2NS(=O)(=O)c2ccc(CO)cc2)cc(OC)c1 [Example 134, N-{3-[(3,5-dimethoxyphenyl)amino]quinoxalin-2-yl}-4-(hydroxymethyl)benzenesulfonamide] |
|  |  | 540 nM | COc1cc(Nc2nc3ccccc3nc2NS(=O)(=O)c2ccc(CO)nc2)cc(OC)c1 [Example 135, N-{3-[(3,5-dimethoxyphenyl)amino]quinoxalin-2-yl}-6-(hydroxymethyl)pyridine-3-sulfonamide] |
|  | 370 nM | 1220 nM | COc1cc(Nc2nc3ccccc3nc2NS(=O)(=O)c2ccc(CN3CCOCC3)cc2)cc(OC)c1 [Example 136, N-{3-[(3,5-dimethoxyphenyl)amino]quinoxalin-2-yl}-4-(morpholin-4-ylmethyl)benzenesulfonamide] |
|  | 40 nM | 400 nM | COc1cc(Nc2nc3ccccc3nc2NS(=O)(=O)c2cccc(CN3CCN(C)CC3)c2)cc(OC)c1 [Example 137, N-{3-[(3,5-dimethoxyphenyl)amino]quinoxalin-2-yl}-3-[(4-methylpiperazin-1-yl)methyl]benzenesulfonamide] |
|  | 27 nM | 270 nM | COc1cc(Nc2nc3ccccc3nc2NS(=O)(=O)c2cccc(CN(C)C)c2)cc(OC)c1 [Example 139, N-{3-[(3,5-dimethoxyphenyl)amino]quinoxalin-2-yl}-3-[(dimethylamino)methyl]benzenesulfonamide] |
|  |  | 390 nM | COc1cc(Nc2nc3ccccc3nc2NS(=O)(=O)c2ccc(CN3CCN(C)CC3)nc2)cc(OC)c1 [Example 149, N-{3-[(3,5-dimethoxyphenyl)amino]quinoxalin-2-yl}-6-[(4-methylpiperazin-1-yl)methyl]pyridine-3-sulfonamide] |
|  | 7 nM | 90 nM | COc1cc(Nc2nc3ccccc3nc2NS(=O)(=O)c2ccc(CN)s2)cc(OC)c1 [Example 150, 5-(aminomethyl)-N-{3-[(3,5-dimethoxyphenyl)amino]quinoxalin-2-yl}thiophene-2-sulfonamide] |
